Measurements as given in article PMC12951551, “Do Amino-Oxetanes Resemble Amides? A Matched Molecular Pairs Property and Structural Comparison” (Journal of Medicinal Chemistry, 2026).
In brackets after ≈: the same amount, converted by molar mass.

Assays:
Kinetic solubility = assay type: physicochemical; settings: for solubility at 24 h: aqueous pH buffer, aqueous buffer, kinetic from dmso stock, 37 °C, 600 µM start; for Kinetic solubility, in words: across acidic, neutral, and basic conditions, compared with benzamide counterpart
Description: Aqueous buffer preparation: pH 3: 50 µL of 1N hydrochloric acid was added to 500 mL of deionized water. The solution was titrated with 1N hydrochloric acid to pH 3, and back titrated with 1N sodium hydroxide. pH 7.4: 100 mM sodium phosphate buffer is made by adding 56.4 g of dibasic sodium phosphate and 10.3 g of monobasic sodium phosphate to 4 L of deionized water. 250 µL of 100 mM sodium phosphate buffer was diluted with 250 µL of deionized water. The solution was titrated with 1N hydrochloric acid to pH 7.4, and back titrated with 1N sodium hydroxide. pH 10: Fisher Scientific pH 10 buffer (SB116-500) containing potassium hydroxide, potassium carbonate, and potassium […]
pH 12.8: 30 mL of 1N NaOH was added to 200 mL of deionized water. The solution was titrated with 1N sodium hydroxide to pH 12.8 and back titrated with 1N hydrochloric acid.
Kinetic solubility: Samples were diluted to 600 µM in the appropriate pH buffer (pH: 3, 7.4, 10) and to 600 µM (assumed 100% solubility) in a DMSO standard. Samples were mixed thoroughly and incubated at 37 °C for 24 h.
Following incubation, pH samples were transferred to a […] PVDF (low binding) and filtered to remove any precipitate. The filtrate was collected and analyzed via MS/MS. The ratio of MS response (DMSO:pH) is taken and multiplied by the initial 600 µM concentration to determine the concentration (solubility) of the samples in pH buffers. […]
(§1) Permeability assay (RRCK): Ralph Russ canine kidney cells were used for permeability measurements using a cell monolayer in 96-transwell format. The detailed assay conditions have been reported previously.9 Test compounds were added to the donor wells and a buffer was added to the receiver wells to start the apical to basolateral transport assay.
(§2) Time 0 and 1.5 h incubation samples were taken for LC-MS/MS analysis. Apparent permeability (Papp) was calculated using the equation below (1), where Area is the surface area of the cell monolayer (0.0625 cm2), CD(0) is the […]

[1] = Permeability assay (RRCK); assay type: in vitro ADME, canine; settings: dog, MDCK, apical to basolateral, average of 2 runs, footnote b = only one replicate
human hepatocytes = assay: Human Hepatocyte (HHEP) stability assay, clearance; assay type: in vitro ADME; settings: for HHEPG clearance: human hepatocytes, 0.5 million cells/mL, 1 µM test compound
Description: Human Hepatocyte (HHEP) assay: The high throughput HHEP stability assay was performed in a 384-well format (Greiner Bio-One, Monroe, NC). The cryopreserved HHEP were thawed, and re-suspended in Williams E medium (WEM, custom formula number 91-5233EC; Invitrogen, Grand Island, NY) supplemented with HEPES and Na2CO3. The cells were counted using the Trypan Blue exclusion method. A multidrop liquid dispenser (Multidrop DW, Thermo Scientific, Waltham, MA) was used to add the HHEP suspensions to the 384-well plates. The cell plates were covered and transferred to a Cytomat 2 incubator (ThermoFisher) and Biomek i7 (Beckman Coulter, Indianapolis, IN), equipped with three 3position MéCour heat exchangers. Test compounds were diluted on the Biomek i7 with buffer (15 µL) and added to the HHEP (30 µL). The final incubation contained 0.5 million cells/mL and 1 µM test compound in 45 µL total volume containing 0.01% DMSO. The incubation was carried out at 37 °C in the Cytomat 2 incubator (relative humidity ≥ 90%, 5% CO2/95% air). At various time points (2, 4, 11, 45, 75, 120, and 240 min), the plate was pulled out from the incubator by the Biomek i7 robot and put on the MéCour heated exchanger. Samples (3 µL) were transferred to a 384-well plate containing 30 µL acetonitrile with an internal standard (IS) to quench the reaction. Water (60 µL) was added to the quenched plate to dilute the organic solvent content for LC-MS/MS analysis. The plates were centrifuged at 3000 rpm for 10 min at 4 °C, sealed and subsequently analyzed using LC-MS/MS without further transfer of the supernatant.
Propranolol (CYP2D6), midazolam (CYP3A) and triazolam (CYP3A, low clearance), naloxone (UGT2B7), carbazeran (AO), and verapamil (CYP3A, CYP2C8) were used as positive controls. For CYP inhibition study, 1 mM ABT (a pan-cYP inhibitor) was pre-incubated with HHEP for 30 minutes at 37 °C before adding test compounds. Values are n >3 unless […]
as §1, §2

[2] = Shake flask LogD (SFLogD) assay; assay type: physicochemical; settings: for logD: pH = 7.4, octanol/water shake flask, average of 2 runs unless otherwise stated
Description: as §1, §2

Compound	solubility at 24 h (Kinetic solubility; pH 3) [µM]	solubility at 24 h (Kinetic solubility; pH 7.4) [µM]	solubility at 24 h (Kinetic solubility; pH 10) [µM]	Papp at 1.5 h [1] [×10⁻⁶ cm/s]	HHEPG clearance (human hepatocytes) [μL min^−1 million^−1]	logD [2]	Kinetic solubility, in words (Kinetic solubility)	HHEPG clearance, in words (human hepatocytes; compared with benzamide counterpart)	Change in SFlogD of the carbonyl-to-oxetane replacement ([2]; pH 7.4, amino-oxetane versus matched benzamide)
COc1ccc(C(=O)NCc2ccccc2)cc1 [2b, N-Benzyl-4-Methoxybenzamide]	114 (≈ 27.5 µg/mL)	91 (≈ 22 µg/mL)	76 (≈ 18.3 µg/mL)	38.1	30	2.74			
COc1ccc(C(=O)Nc2ccc(NC(C)=O)cc2)cc1 [6b, N-(4-Acetamidophenyl)-4-Methoxybenzamide]	13 (≈ 3.7 µg/mL)	10 (≈ 2.84 µg/mL)	8 (≈ 2.27 µg/mL)	14	57	1.92			
COc1ccc(C(=O)NC(C)C(=O)N(C)C)cc1 (stereo not drawn) [3b, N-(1-(Dimethylamino)-1-Oxopropan-2-yl)-4-Methoxybenzamide]	461 (≈ 115 µg/mL)	574 (≈ 144 µg/mL)	465 (≈ 116 µg/mL)	32.2	< 2	1			
COc1ccc(C(=O)N2CCOCC2)cc1 [4b, (4-Methoxyphenyl)(Morpholino)Methanone]	461 (≈ 102 µg/mL)	574 (≈ 127 µg/mL)	465 (≈ 103 µg/mL)	48.3	< 3	0.823			
COc1ccc(C2(Nc3ccc(OC)nc3)COC2)cc1 [8a, 6-Methoxy-N-(3-(4-Methoxyphenyl)Oxetan-3-yl)Pyridin-3-Amine]	412 (≈ 118 µg/mL)	358 (≈ 103 µg/mL)	326 (≈ 93.3 µg/mL)	37.2	42	2.54	higher solubility		
COc1ccc(C(=O)NCC23C[C@H]4C[C@@H](C2)C[C@@H](C3)C4)cc1 [1b, N-(((3R,5R,7R)-Adamantan-1-yl)Methyl)-4-Methoxybenzamide]	< 0.1	< 0.1	< 0.8	32.7		3.83			
O=C(c1ccc(-c2cnc(C(F)(F)F)nc2)cc1)N1CCOCC1 [11b, Morpholino(4-(2-(Trifluoromethyl)Pyrimidin-5-yl)Phenyl)Methanone]				43.2	< 2	1.31			
COc1ccc(C2(Nc3ccc4c(c3)OC(F)(F)O4)COC2)cc1 [7a, 2,2-Difluoro-N-(3-(4-Methoxyphenyl)Oxetan-3-yl)Benzo[d][1,3]dioxol-5-Amine]	7 (≈ 2.35 µg/mL)	8 (≈ 2.68 µg/mL)	12 (≈ 4.02 µg/mL)					significantly higher clearance than its benzamide counterpart	
COc1ccc(C2(N[C@@H](C)C(=O)N(C)C)COC2)cc1 [3a, (S)-2-((3-(4-Methoxyphenyl)Oxetan-3-yl)Amino)-N,N-Dimethylpropanamide]	464 (≈ 129 µg/mL)	472 (≈ 131 µg/mL)	458 (≈ 127 µg/mL)	27.3	< 3	0.418	solubility comparable to their analogous benzamides		−0.59
O=C(c1ccc(N2CCOCC2)cc1)N1CCOCC1 [12b, 4-Morpholinonebenzene-4-Yl-Morpholine]				36.4	< 2	0.444			
O=C(c1ccc(Oc2ccccn2)cc1)N1CCOCC1 [9b, Morpholino(4-(Pyridin-2-yloxy)Phenyl)Methanone]				47.2	< 2	1.08			
